ChEMBL document CHEMBL3232975, “Using ovality to predict nonmutagenic, orally efficacious pyridazine amides as cell specific spleen tyrosine kinase inhibitors” (J Med Chem, 2014)
Converted amounts (≈) assume the structure as drawn.

Columns and labels:
[1] = Metabolic stability in rat liver microsomes; format: ADME; conditions: read-out: Stability
[2] = Metabolic stability in human liver microsomes; format: ADME; conditions: read-out: Stability
[3] = Solubility of the compound by LYSA; format: physicochemical
[4] = Volume of distribution at steady state in mouse at 1 mg/kg, iv; format: ADME, organism-based; set-up: dose 1 mg/kg, route intravenous; conditions: in vivo, read-out: Vdss
[5] = Total plasma clearance in mouse at 1 mg/kg, iv; format: ADME, organism-based; set-up: dose 1 mg/kg, route intravenous
[6] = Oral bioavailability in mouse at 10 to 20 mg/kg; format: ADME, organism-based; conditions: in vivo
Mus musculus [7] = test: Dose-normalized AUC in mouse at 10 to 20 mg/kg, po; format: ADME, organism-based; set-up: dose 10-20 mg/kg, route oral; conditions: in vivo
[8] = Apparent terminal half life in mouse at 1 mg/kg, iv; format: ADME, organism-based; set-up: dose 1 mg/kg, route intravenous; conditions: in vivo, read-out: betat1/2(app) (converted)
[9] = Cmax in mouse at 5 mg/kg, po; format: ADME, organism-based; set-up: dose 5 mg/kg, route oral; conditions: in vivo
[10] = Apparent terminal half life in mouse at 0.5 mg/kg, iv; format: ADME, organism-based; set-up: dose 0.5 mg/kg, route intravenous; conditions: in vivo, read-out: betat1/2(app) (converted)
[11] = Cmax in mouse at 30 mg/kg, po; format: ADME, organism-based; set-up: dose 30 mg/kg, route oral; conditions: in vivo
[12] = Oral bioavailability in mouse at 5 mg/kg; format: ADME, organism-based; conditions: in vivo
[13] = Oral bioavailability in mouse at 30 mg/kg; format: ADME, organism-based; conditions: in vivo
Mus musculus [14] = test: Dose-normalized AUC in mouse at 5 mg/kg, po; format: ADME, organism-based; set-up: dose 5 mg/kg, route oral; conditions: in vivo
[15] = Volume of distribution at steady state in mouse at 0.5 mg/kg, iv; format: ADME, organism-based; set-up: dose 0.5 mg/kg, route intravenous; conditions: in vivo, read-out: Vdss
[16] = Total plasma clearance in mouse at 0.5 mg/kg, iv; format: ADME, organism-based; set-up: dose 0.5 mg/kg, route intravenous
Mus musculus [17] = test: Dose-normalized AUC in mouse at 30 mg/kg, po; format: ADME, organism-based; set-up: dose 30 mg/kg, route oral; conditions: in vivo

SMILES	CLhep predicted [1] [mL/min/kg]	CLhep predicted [2] [mL/min/kg]	solubility [3] [µg/mL]	Vd [4] [L/kg]	clearance [5] [mL/min/kg]	bioavailability [6] [%]	AUC/dose (Mus musculus [7])	half-life [8] [h]	further results
Cc1nc(Nc2cc(N[C@@H]3CCCC[C@@H]3N)nnc2C(N)=O)ccc1Cl	20	7	345 (≈ 918 µM)						Cmax [9]: 386 ng/mL; half-life [10]: 3.92 h; Cmax [11]: 144 ng/mL; bioavailability [12]: 51%; bioavailability [13]: 40%; AUC/dose (Mus musculus [14]): 970 ng/mL.hr/(mg/kg); Vd [15]: 2.74 L/kg; clearance [16]: 8.65 mL/min/kg; AUC/dose (Mus musculus [17]): 9753 ng/mL.hr/(mg/kg)
COc1ccc(Nc2cc(NCCN)nnc2C(N)=O)nc1C(C)C				1.4	16.7	61	609 ng/mL.hr/(mg/kg)	1.74	
Cc1ccc(Nc2cc(N[C@@H]3CCCC[C@@H]3N)nnc2C(N)=O)nc1C	23	1	329 (≈ 926 µM)						AUC/dose (Mus musculus [14]): 25.9 ng/mL.hr/(mg/kg)
COc1ccc(Nc2cc(N[C@@H]3CCCC[C@@H]3N)nnc2C(N)=O)nc1OC	14	2	522 (≈ 1350 µM)						

Second part, led by results:

CLhep predicted [1] [mL/min/kg]	CLhep predicted [2] [mL/min/kg]	solubility [3] [µg/mL]	Vd [4] [L/kg]	clearance [5] [mL/min/kg]	bioavailability [6] [%]	AUC/dose (Mus musculus [7])	half-life [8] [h]	SMILES	further results
27	2	471 (≈ 1380 µM)						Cc1cccc(Nc2cc(N[C@@H]3CCCC[C@@H]3N)nnc2C(N)=O)n1	
			0.63	8.52	75	1470 ng/mL.hr/(mg/kg)	1.28	CCCc1nc(Nc2cc(NCCN)nnc2C(N)=O)ccc1OC	
27	2	404 (≈ 1100 µM)						NC(=O)c1nnc(N[C@@H]2CCCC[C@@H]2N)cc1Nc1ccc2c(n1)CCC2	
18	3	390 (≈ 1090 µM)						Cc1nc(Nc2cc(N[C@@H]3CCCC[C@@H]3N)nnc2C(N)=O)ccc1F	half-life [10]: 3.26 h; Cmax [11]: 1560 ng/mL; bioavailability [13]: 20%; Vd [15]: 1.44 L/kg; clearance [16]: 5.57 mL/min/kg; AUC/dose (Mus musculus [17]): 568 ng/mL.hr/(mg/kg)
			3.67	42.2	92	365 ng/mL.hr/(mg/kg)	1.96	COc1ccc(Nc2cc(N[C@@H]3CCOC[C@@H]3N)nnc2C(N)=O)nc1C(C)C	
